Source: patent US20240308987A1, “SMALL MOLECULE INHIBITOR AGAINST NASOPHARYNGEAL CARCINOMA, PREPARATION METHOD AND APPLICATION THEREOF” (SHENZHEN BAY LABORATORY, priority 2021, published 2024)

The molecules below were run on C666-1 cells (assay: C666-1 Cell Viability Assay (Resazurin cytotoxicity test)). Conditions: Homo sapiens, C6661, EB virus-positive C666-1 cells, 72 hours treatment, 100-0.78 micromole/L, read-out: Inhibitory Rate.
Format: cell-based
In short: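 EBV-positive nasopharyngeal carcinoma C666-1 cells, 5×10^3 per well, were grown 24 h, then exposed to compound for 72 h at 37 °C (8-point two-fold dilutions, final 100–0.78 µM). Viability was read by resazurin reduction fluorescence after 3 h; EC50 came from the fitted inhibition curve.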

**Q.** `COC(=O)c1cccc(N2CC(Oc3ccc(COc4ccc(C)nc4)cc3)C2)c1-n1cccc1` [Example 5, methyl 3-(3-(4-((6-methylpyridin-3-yloxy)methyl)phenoxy)azetidin-1-yl)-2-(1H-pyrrol-1-yl) benzoate] was tested. Which EC50 did it give?
**A.** Its EC50 is > 50 µM.

**Q.** With `COC(=O)c1cccc(N2CC(Oc3ccc(CCc4cccnc4)cc3)C2)c1-n1cccc1` [Example 29, methyl 3-(3-(4-(2-(pyridin-3-yl)ethyl)phenoxy)azetidin-1-yl)-2-(1H-pyrrol-1-yl) benzoate] as the molecule, how does the EC50 read?
**A.** Its EC50 is > 50 µM.

**Q.** `COC(=O)c1cccc(N2CC(Oc3ccc(COCc4cccnc4)cc3)C2)c1-n1cccc1` [Example 27, methyl 3-(3-(4-((pyridin-3-ylmethoxy)methyl)phenoxy)azetidin-1-yl)-2-(1H-pyrrol-1-yl) benzoate] was tested. Which EC50 did it give?
**A.** The EC50 was 10 to 50 µM.

**Q.** With `O=C(O)c1cccc(N2CC(Oc3ccc(COCc4cccnc4)cc3)C2)c1-n1cccc1` [Example 27a, 3-(3-(4-((pyridin-3-ylmethoxy)methyl)phenoxy)azetidin-1-yl)-2-(1H-pyrrol-1-yl) benzoic acid] as the molecule, how does the EC50 read?
**A.** Its EC50 is > 50 µM.

**Q.** For `COC(=O)c1cccc(N2CC(Oc3ccc(NC(=O)Cc4cccnc4)cc3)C2)c1-c1ccccc1` [Example 45, methyl 6-(3-(4-(2-(pyridin-3-yl)acetamido)phenoxy)azetidin-1-yl)-[1,1′-biphenyl]-2-carboxylate], which EC50 is on record?
**A.** The EC50 was < 1 µM.

**Q.** For `COC(=O)c1cccc(N2CC(Oc3ccc(/C=C/c4cccnc4)cc3)C2)c1-n1cccc1` [Example 28, methyl (E)-3-(3-(4-(2-(pyridin-3-yl)vinyl)phenoxy)azetidin-1-yl)-2-(1H-pyrrol-1-yl) benzoate], which EC50 is on record?
**A.** The EC50 was > 50 µM.

**Q.** For `COC(=O)c1cccc(N2CC(Oc3ccc(COc4cccnc4)cc3)C2)c1-c1cccc(Cl)c1` [Example 18, methyl 3′-chloro-6-(3-(4-((pyridin-3-yloxy)methyl)phenoxy)azetidin-1-yl)-[1,1′-biphenyl]-2-carboxylate], which EC50 is on record?
**A.** The EC50 was 1 to 10 µM.

**Q.** How did the EC50 turn out when `O=C(Cc1cccnc1)Nc1ccc(OC2CN(c3cccc(C(=O)NO)c3-c3ccccc3)C2)cc1` [Example 45b, N-hydroxy-6-(3-(4-(2-(pyridine-3-yl)acetamido)phenoxy)azetidin-1-yl)-[1,1′-biphenyl]-2-carboxamide] was run?
**A.** The EC50 was < 1 µM.

**Q.** `COC(=O)c1cccc(N2CC(Oc3ccc(COc4ncccn4)cc3)C2)c1-n1cccc1` [Example 11, methyl 3-(3-(4-((pyrimidin-2-yloxy)methyl)phenoxy)azetidin-1-yl)-2-(1H-pyrrol-1-yl) benzoate] was tested. Which EC50 did it give?
**A.** Its EC50 is > 50 µM.

**Q.** Which EC50 does the source give for `O=C(Nc1ccc(OC2CN(c3cccc(C(=O)O)c3)C2)cc1)Nc1cccnc1` [Example 50a, 3-(3-(4-(3-(pyridin-3-yl)ureido)phenoxy)azetidin-1-yl) benzoic acid] here?
**A.** Its EC50 is 1 to 10 µM.

**Q.** For `O=C(O)c1cccc(N2CC(Oc3ccc(COc4ncccn4)cc3)C2)c1-n1cccc1` [Example 11a, 3-(3-(4-((pyrimidin-2-yloxy)methyl)phenoxy)azetidin-1-yl)-2-(1H-pyrrol-1-yl) benzoic acid], which EC50 is on record?
**A.** Its EC50 is > 50 µM.

**Q.** `O=C(Cc1cccnc1)Nc1ccc(OC2CN(c3cccc(C(=O)O)c3-n3cccc3)C2)cc1F` [Example 52a, 3-(3-(3-fluoro-4-(2-(pyridin-3-yl)acetamido)phenoxy)azetidin-1-yl)-2-(1H-pyrrol-1-yl) benzoic acid] was tested. Which EC50 did it give?
**A.** Its EC50 is < 1 µM.

**Q.** How did the EC50 turn out when `O=C(NO)c1cccc(N2CC(Oc3ccc(CNc4cccnc4)cc3)C2)c1-n1cccc1` [Example 23b, N-hydroxy-3-(3-(4-((pyridin-3-ylamino)methyl)phenoxy)azetidin-1-yl)-2-(1H-pyrrol-1-yl) benzamide] was run?
**A.** Its EC50 is < 1 µM.

**Q.** Which EC50 does the source give for `CONC(=O)c1cccc(N2CC(Oc3ccc(NC(=O)Cc4cccnc4)cc3)C2)c1-c1ccccc1` [Example 45d, N-methoxy-6-(3-(4-(2-(pyridin-3-yl)acetamido)phenoxy)azetidin-1-yl)-[1,1′-biphenyl]-2-carboxamide] here?
**A.** The EC50 was 10 to 50 µM.

**Q.** With `O=C(NO)c1cccc(N2CC(Oc3ccc(COc4cccnc4)cc3)C2)c1-n1cccc1` [Example 1c, N-hydroxy-3-(3-(4-((pyridin-3-yloxy)methyl)phenoxy)azetidin-1-yl)-2-(1H-pyrrole-1-yl) benzamide] as the molecule, how does the EC50 read?
**A.** The EC50 was < 1 µM.

**Q.** How did the EC50 turn out when `O=C(Nc1ccc(OC2CN(c3cccc(C(=O)NO)c3-c3cccc(Cl)c3)C2)cc1)Nc1cccnc1` [Example 41b, 3′-chloro-N-hydroxy-6-(3-(4-(3-(pyridin-3-yl)ureido)phenoxy)azetidin-1-yl)-[1,1′-biphenyl]-2-carboxamide] was run?
**A.** Its EC50 is < 1 µM.

**Q.** With `COC(=O)c1cccc(N2CC(Oc3ccc(COc4ccc(OC)nc4)cc3)C2)c1-n1cccc1` [Example 4, methyl 3-(3-(4-(((6-methoxypyridin-3-yl)oxy)methyl)phenoxy)azetidin-1-yl)-2-(1H-pyrrol-1-yl) benzoate] as the molecule, how does the EC50 read?
**A.** Its EC50 is > 50 µM.

**Q.** With `Cc1c(C(=O)O)cccc1N1CC(Oc2ccc(NC(=O)Cc3cccnc3)cc2)C1` [Example 53a, 2-methyl-3-(3-(4-(2-(pyridin-3-yl)acetamido)phenoxy)azetidin-1-yl) benzoic acid] as the molecule, how does the EC50 read?
**A.** Its EC50 is 10 to 50 µM.

**Q.** Which EC50 does the source give for `O=C(O)c1cccc(N2CC(Oc3ccc(COc4cccnc4)cc3)C2)c1-n1cccc1` [Example 1a, 3-(3-(4-((pyridin-3-yloxy)methyl)phenoxy)azetidin-1-yl)-2-(1H-pyrrol-1-yl) benzoic acid] here?
**A.** The EC50 was 1 to 10 µM.

**Q.** For `O=C(Cc1ccc(OC2CN(c3cccc(C(=O)O)c3-n3cccc3)C2)cc1)Nc1ccccc1` [Example 35a, 3-(3-(4-(2-oxo-2-(phenylamino)ethyl)phenoxy)azetidin-1-yl)-2-(1H-pyrrol-1-yl) benzoic acid], which EC50 is on record?
**A.** The EC50 was > 50 µM.

**Q.** How did the EC50 turn out when `O=C(O)c1cccc(N2CC(Oc3ccc(COc4cnc5ccccc5c4)cc3)C2)c1-n1cccc1` [Example 9a, 2-(1H-pyrrol-1-yl)-3-(3-(4-((quinolin-3-yloxy)methyl)phenoxy)azetidin-1-yl) benzoic acid] was run?
**A.** Its EC50 is > 50 µM.

**Q.** `CNC(=O)c1cccc(N2CC(Oc3ccc(CC(=O)Nc4cccnc4)cc3)C2)c1-c1ccccc1` [Example 40c, N-methyl-6-(3-(4-(2-oxo-2-(pyridin-3-ylamino)ethyl)phenoxy)azetidin-1-yl)-[1,1′-biphenyl]-2-carboxamide] was tested. Which EC50 did it give?
**A.** Its EC50 is 1 to 10 µM.
